Source: patent US10806711B2 (priority 2011, dated 2020)
Entries after “also recorded” stand apart in the source; their conditions may differ.

Key:
[1] = tested on: WT mice; assay: In vivo electrophysiology (electrocardiographic data during echo studies); set-up: species or system mouse
Method: In vivo electrophysiology—Electrocardiographic data was obtained during all echocardiographic studies. These studies were subsequently analyzed by an independent, blinded reader at all time points to evaluate for electrocardiographic changes and drug induced arrhythmias. The following parameters were measured: PR interval, RR interval, QRS width and were reported as peak change while the presence of supraventricular or ventricular arrhythmias was measured as a total observed over all images obtained in 30 minutes.

[2] = tested on: WT mice; assay: Invasive evaluation of +dP/dt (LV pressure catheter); type: in vivo, mouse; details: 30 mg/kg and 100 mg/kg bolus IV, 5 minutes between doses
Method: Invasive evaluation.—Once a dose range was established, a separate group of WT mice were anesthetized with an intraperitoneal injection of ketamine (50 μg/g) and inactin (thiobutabarbital, 100 μg/g, Sigma, Mass.). A tracheotomy was performed (PE-90), and body temperature was monitored and maintained with a feedback-controlled heating table. The right femoral artery was cannulated with fluid-filled polyethylene tubing for measurement of blood pressure and connected to a low compliance pressure transducer (COBE Cardiovascular, Arvada, Colo.). The right femoral vein was cannulated for delivery of drugs. A high fidelity, 1.2-French SciSence pressure catheter (SciSence, London, ON, Canada) was inserted into the right carotid artery and advanced into the left ventricle to monitor cardiac performance. ECG leads were placed on the right and left arms, and left leg and connected to a BIOAmp (AD Instruments, Colorado Springs, Colo.). For carotid blood flow measurements, the left carotid artery was isolated and fitted with a 0.5-PSB perivascular flow probe connected to a TS420 flowmeter (Transonic Systems, Ithaca, N.Y.). […] Hemodynamic variables were collected and analyzed using a MacLab 4/S system (AD Instruments, Colorado Springs, Colo.) and Chart software.

[3] = tested on: HL-1 cells; assay: Imaging and measurement of Ca2+ fluorescence in HL-1 cells; type: cell-based
Method: Imaging and measurement of Ca2+ fluorescence.—HL-1 cells were obtained as described above. Dissociated cells were plated on glass cover-slip (GG-25-polylysine #1, Neuvitro, Calif.) placed inside each well of six-well plates (BD Falcon). Acquisition of images were done at 40-65 Hz by using LSM 510 Meta system equipped with the inverted Axiovert 200 M BP (Carl Zeiss Microscopy, LLC, Thornwood, N.Y.) and LSMS Software. Image acquisition was done with Plan-Apochromat 40×/water with frame size of 512 (X) and 256(Y). To optimize the speed of acquisition, the acquisition area was limited to a few cells. […] Peak fluorescence before perfusion (F0) and that after perfusion (F) were determined manually after acquisition of images from the saved LSM files. Circular areas within the cytosol of each cell of the saved images over the entire duration of respective experiments were used to determine changes in fluorescence before and after perfusion. Normalized fluorescence, determined as a quotient of F/F0, was used as a variable to compare the relative changes in fluorescence at different incremental concentrations during statistical analyses. […]

CCCN(CCC)S(=O)(=O)c1ccc(C(=O)O)cc1 [probenecid]
electrocardiographic differences between WT and TRPV2−/− mice (FIG. 2D) ([1]; 100 mg/kg IP): no significant differences
changes in conduction intervals (RR, PR, QRS) ([1]; all doses): no measured changes in any conduction intervals; also recorded: no significant changes in any of the measured electrocardiographic variables
supraventricular or ventricular arrhythmias, premature beats ([1]; any dose of probenecid, observed over 30 minutes): No supraventricular or ventricular arrhythmias or premature atrial or ventricular beats were observed; also recorded: no arrhythmias
peak +dP/dt in vivo [2]: rapidly increased
median peak cytosolic fluorescence after vs before perfusion ([3]; higher probenecid concentrations (up to 10^−4)): significantly higher
median peak cytosolic fluorescence before vs after perfusion ([3]; probenecid 10^−8): No significant differences
